{"source": "ChEMBL document CHEMBL1201862", "about": "“PubChem BioAssay data set” (2004)", "key": {"[1]": {"target": "T1, Adenosylmethionine-8-amino-7-oxononanoate aminotransferase (Mycobacterium tuberculosis, UniProt P9WQ81)", "T1 sequence (P9WQ81 whole entry)": "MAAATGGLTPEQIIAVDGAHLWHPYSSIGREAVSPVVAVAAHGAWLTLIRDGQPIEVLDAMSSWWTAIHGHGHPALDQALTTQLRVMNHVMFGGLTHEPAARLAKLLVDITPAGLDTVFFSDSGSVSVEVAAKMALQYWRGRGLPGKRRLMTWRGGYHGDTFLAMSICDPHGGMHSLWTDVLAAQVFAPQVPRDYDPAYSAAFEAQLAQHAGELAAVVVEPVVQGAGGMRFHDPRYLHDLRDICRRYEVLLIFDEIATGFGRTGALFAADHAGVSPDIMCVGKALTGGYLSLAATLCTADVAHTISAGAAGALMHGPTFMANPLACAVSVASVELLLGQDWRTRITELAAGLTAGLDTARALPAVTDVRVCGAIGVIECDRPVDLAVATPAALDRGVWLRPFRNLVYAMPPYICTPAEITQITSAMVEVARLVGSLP", "experiment": "Mycobacterium tuberculosis BioA enzyme inhibitor Measured in Biochemical System Using Plate Reader - 2163-02_Inhibitor_Dose_CherryPick_Activity.", "assay_type": "functional, Mycobacterium tuberculosis UT205"}, "[2]": {"experiment": "A549 cell cytotoxicity, dose response, cytotoxicity control, plate reader, cherry-pick, antagonist series (AID 743412)", "assay_type": "functional, cell-based"}, "[3]": {"experiment": "LGR2 antagonists, dose response, cell-based, HEK293, CRE-luciferase reporter, cherry pick, set 2 (AID 743343);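 note: transfected cells were stimulated with diluted bursicon conditioned medium after compound addition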", "assay_type": "functional"}, "[4]": {"experiment": "HepG2 cell cytotoxicity, dose response, cytotoxicity control, plate reader, cherry-pick, antagonist series (AID 743416)", "assay_type": "functional, cell-based"}, "[5]": {"experiment": "HEK293 cell cytotoxicity, dose response, cytotoxicity control, plate reader, cherry-picked samples (AID 743446)", "assay_type": "functional, cell-based"}, "[6]": {"experiment": "MC4R antagonists, dose response, counter-screen for LGR2 antagonist project, cell-based, plate reader, cherry pick (AID 743444);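 note: transfected HEK 293 cells stimulated with alpha-MSH peptide; potency of inhibitors of the alpha-MSH evoked signal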", "assay_type": "functional"}, "[7]": {"target": "T2, Oxysterols receptor LXR-beta (Homo sapiens, UniProt P55055)", "T2 sequence (P55055 whole entry)": "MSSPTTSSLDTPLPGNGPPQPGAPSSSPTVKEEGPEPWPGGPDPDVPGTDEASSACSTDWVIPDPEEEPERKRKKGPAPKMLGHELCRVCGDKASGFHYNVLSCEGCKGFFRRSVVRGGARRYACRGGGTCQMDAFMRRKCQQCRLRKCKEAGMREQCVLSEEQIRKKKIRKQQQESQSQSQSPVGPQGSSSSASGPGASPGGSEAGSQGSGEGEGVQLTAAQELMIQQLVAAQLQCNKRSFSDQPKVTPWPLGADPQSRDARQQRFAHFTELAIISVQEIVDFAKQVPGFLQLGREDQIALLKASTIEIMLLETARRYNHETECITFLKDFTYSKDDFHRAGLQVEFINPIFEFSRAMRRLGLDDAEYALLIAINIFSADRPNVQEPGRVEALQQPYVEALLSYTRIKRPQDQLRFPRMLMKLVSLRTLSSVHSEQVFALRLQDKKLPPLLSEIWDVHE", "experiment": "LXR agonists, Gal4 luciferase reporter, dose response, counter-screen for ssDAF-12 agonist project, cell-based, luminescence, HEK293, S. stercoralis campaign (AID 720737)", "assay_type": "functional", "conditions": "read-out: IC50 (the source's name)"}, "[8]": {"experiment": "Luminescence-based cell-based high throughput dose response assay to identify activators of the DAF-12 from the parasite S. stercoralis (ssDAF-12).", "assay_type": "functional"}, "[9]": {"tested_on": "Streptococcus sp. 'group A'", "experiment": "growth inhibition of control SK(-) GAS strain, dose response, counter-screen for streptokinase expression inhibitor project, luminescence, kanamycin, BacTiterGlo, confirmation (AID 1900)", "assay_type": "functional, organism-based"}, "[10]": {"tested_on": "Streptococcus", "experiment": "Group A Streptococcus viability loss, dose response, counter-screen for streptokinase expression inhibitor project, luminescence, BacTiterGlo (AID 1915);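 note: potency for reduction of bacterial viability or growth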", "assay_type": "functional, organism-based"}, "[11]": {"target": "T3, Streptokinase A (Streptococcus pyogenes serotype M1, UniProt P10520)", "T3 sequence (P10520 whole entry)": "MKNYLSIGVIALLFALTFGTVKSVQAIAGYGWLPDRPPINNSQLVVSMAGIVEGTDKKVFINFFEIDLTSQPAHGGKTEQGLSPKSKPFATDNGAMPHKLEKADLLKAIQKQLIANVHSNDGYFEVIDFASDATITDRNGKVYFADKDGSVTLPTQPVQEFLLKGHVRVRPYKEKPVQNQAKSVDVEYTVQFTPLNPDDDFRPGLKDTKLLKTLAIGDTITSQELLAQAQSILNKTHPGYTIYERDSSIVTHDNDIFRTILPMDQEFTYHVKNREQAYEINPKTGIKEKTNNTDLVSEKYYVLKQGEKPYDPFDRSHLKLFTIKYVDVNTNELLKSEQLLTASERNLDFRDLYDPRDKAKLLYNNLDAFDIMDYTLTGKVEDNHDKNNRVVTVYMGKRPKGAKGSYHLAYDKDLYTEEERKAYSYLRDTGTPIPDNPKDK", "experiment": "S. pyogenes streptokinase expression inhibitors, potency, dose response, plasminogen activation absorbance, OD405 (AID 1914);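 note: secreted streptokinase activity via plasminogen activation per viability signal from cell pellet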", "assay_type": "functional, Streptococcus pyogenes M1 GAS"}, "[12]": {"experiment": "M. tuberculosis H37Rv growth inhibitors, H37Rv strain (AID 1626)", "assay_type": "functional"}, "[13]": {"target": "T4, Mannose-6-phosphate isomerase (Homo sapiens, UniProt P34949)", "T4 sequence (P34949 whole entry)": "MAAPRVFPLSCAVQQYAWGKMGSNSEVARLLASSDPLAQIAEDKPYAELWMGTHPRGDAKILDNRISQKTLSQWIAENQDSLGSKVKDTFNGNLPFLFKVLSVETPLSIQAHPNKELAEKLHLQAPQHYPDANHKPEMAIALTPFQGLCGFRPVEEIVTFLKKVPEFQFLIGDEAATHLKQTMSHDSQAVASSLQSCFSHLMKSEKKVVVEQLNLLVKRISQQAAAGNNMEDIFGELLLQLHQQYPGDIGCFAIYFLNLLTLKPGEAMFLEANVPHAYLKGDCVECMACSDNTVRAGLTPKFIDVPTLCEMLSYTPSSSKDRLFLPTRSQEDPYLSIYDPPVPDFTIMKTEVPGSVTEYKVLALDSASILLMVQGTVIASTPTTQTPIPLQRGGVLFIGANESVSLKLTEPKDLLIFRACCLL", "experiment": "human PMI inhibitors, high substrate, primary screen, biochemical, fluorescence intensity, high mannose 6-phosphate (AID 1220)"}, "[14]": {"tested_on": "H9c2", "experiment": "cells", "assay_type": "functional, cell-based", "conditions": "Rattus norvegicus, H9c2, Myocardium"}, "[15]": {"target": "Disintegrin and metalloproteinase domain-containing protein 17 (Homo sapiens, UniProt P78536)", "sequence (P78536 whole entry, the tested form may be a part)": "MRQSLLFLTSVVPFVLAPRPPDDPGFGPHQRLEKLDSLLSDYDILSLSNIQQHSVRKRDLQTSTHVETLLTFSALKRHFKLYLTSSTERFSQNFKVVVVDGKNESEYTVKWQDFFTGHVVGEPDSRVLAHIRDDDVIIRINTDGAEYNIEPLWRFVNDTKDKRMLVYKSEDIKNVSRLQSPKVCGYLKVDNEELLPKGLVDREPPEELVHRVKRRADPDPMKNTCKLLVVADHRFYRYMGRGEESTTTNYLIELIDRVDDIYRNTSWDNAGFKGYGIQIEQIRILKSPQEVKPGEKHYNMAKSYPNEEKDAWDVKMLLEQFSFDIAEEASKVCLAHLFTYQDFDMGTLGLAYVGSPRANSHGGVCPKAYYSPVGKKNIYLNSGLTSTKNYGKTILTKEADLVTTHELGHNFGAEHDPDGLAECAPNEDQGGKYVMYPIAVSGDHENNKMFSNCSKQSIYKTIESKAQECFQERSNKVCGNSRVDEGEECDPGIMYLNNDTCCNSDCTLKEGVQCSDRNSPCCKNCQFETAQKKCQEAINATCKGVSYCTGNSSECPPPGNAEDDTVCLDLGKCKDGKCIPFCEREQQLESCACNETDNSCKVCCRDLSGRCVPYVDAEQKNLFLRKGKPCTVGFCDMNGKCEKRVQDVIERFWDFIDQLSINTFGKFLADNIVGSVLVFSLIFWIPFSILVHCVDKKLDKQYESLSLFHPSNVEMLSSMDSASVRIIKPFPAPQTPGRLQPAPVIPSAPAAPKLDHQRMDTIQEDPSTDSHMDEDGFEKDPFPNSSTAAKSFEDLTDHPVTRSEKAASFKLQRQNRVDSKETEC", "experiment": "ADAM17 protease inhibitors, dose response, counter-screen for ADAM10 exosite inhibitor project, biochemical, quenched FRET substrate (AID 743253)"}, "[16]": {"experiment": "cytotoxicity in OVCAR8 ovarian cancer cells, dose response, PAX8 project, cell-based, plate reader, dry powder samples (AID 743197)", "assay_type": "functional", "conditions": "OVCAR-8"}, "[17]": {"target": "Paired box protein Pax-8 (Homo sapiens, UniProt Q06710)", "sequence (Q06710 whole entry)": "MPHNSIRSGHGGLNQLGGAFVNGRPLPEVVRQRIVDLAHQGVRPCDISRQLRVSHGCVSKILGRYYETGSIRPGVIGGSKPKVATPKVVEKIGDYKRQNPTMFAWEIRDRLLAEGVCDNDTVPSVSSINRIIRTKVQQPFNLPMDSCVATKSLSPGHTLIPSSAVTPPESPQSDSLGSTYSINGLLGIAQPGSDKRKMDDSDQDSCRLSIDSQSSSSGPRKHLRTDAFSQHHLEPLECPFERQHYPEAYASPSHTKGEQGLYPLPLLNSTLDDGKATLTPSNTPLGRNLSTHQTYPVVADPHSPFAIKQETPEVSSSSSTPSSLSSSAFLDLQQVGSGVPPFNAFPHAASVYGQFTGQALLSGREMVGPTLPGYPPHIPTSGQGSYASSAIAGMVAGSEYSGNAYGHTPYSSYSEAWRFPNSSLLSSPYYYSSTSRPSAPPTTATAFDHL", "experiment": "inhibitors of PAX8-driven TPO luciferase reporter, dose response, RMG-I cells, cherry-pick (AID 687027);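 note: luciferase reporter driven by Pax8 target thyroperoxidase promoter measured by SteadyGlo luminescence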", "assay_type": "functional, cell-based"}, "[18]": {"experiment": "non-specific cell cytotoxicity, dose response, cytotoxicity control for PAX8 inhibitor project, plate reader, dry powder samples (AID 743021)", "assay_type": "functional, cell-based"}, "[19]": {"experiment": "NIH:OVCAR-3 ovarian cancer cell cytotoxicity, dose response, PAX8 inhibitor project, plate reader, dry powder samples (AID 743044)", "assay_type": "functional, cell-based"}, "[20]": {"experiment": "IGROV1 ovarian cancer cell cytotoxicity, dose response, PAX8 inhibitor project, plate reader, dry powder samples (AID 743043)", "assay_type": "functional, cell-based", "conditions": "IGROV-1"}}, "note": "Active and inactive are the calls of the source."}
{"smiles": "Fc1ccc(-c2ccc3c(c2)C2CC3CCN2)cc1", "note": "(configuration not stated)", "values": [{"measurement": "AC50", "setting": "[1]", "result": "1.25 µM (active)"}]}
{"smiles": "Oc1nc2ccccc2n1C1CCN(C(CCc2ccccc2)c2nnnn2C2CCCCC2)CC1", "note": "(configuration not stated)", "values": [{"measurement": "AC50", "setting": "[2]", "result": "15.8 µM (active)"}, {"measurement": "AC50", "setting": "[3]", "result": "20.3 µM (active)"}, {"measurement": "AC50", "setting": "[4]", "result": "30.6 µM (active)"}, {"measurement": "AC50", "setting": "[5]", "result": "12.8 µM (active)"}, {"measurement": "AC50", "setting": "[6]", "result": "14.1 µM (active)"}]}
{"smiles": "CCOC(=O)/C(C#N)=C/c1cn(CCOc2ccccc2)c2ccccc12", "values": [{"measurement": "EC50", "setting": "[7]", "result": "> 67.6 µM (inactive)"}, {"measurement": "IC50", "setting": "[8]", "result": "> 67.6 µM (inactive)"}]}
{"smiles": "Oc1c(Cl)cc(Cl)cc1/C=N\\c1cc(C(F)(F)F)ccc1N1CCc2ccccc2C1", "values": [{"measurement": "EC50", "setting": "[7]", "result": "> 67.5 µM (inactive)"}, {"measurement": "IC50", "setting": "[8]", "result": "> 67.5 µM (inactive)"}, {"measurement": "EC50", "setting": "[9]", "result": "4.75 µM (active)"}, {"measurement": "EC50", "setting": "[10]", "result": "11.8 µM (active)"}, {"measurement": "EC50", "setting": "[11]", "result": "47.7 µM (active)"}]}
{"smiles": "O=C(c1ccc2c(c1)OCO2)N1CC[C@@H]2[C@H](CO)Nc3ccc(-c4ccc(F)cc4)cc3[C@@H]21", "values": [{"measurement": "AC50", "setting": "[1]", "result": "1.4 µM (active)"}]}
{"smiles": "Nc1nc2c(s1)COc1ccccc1-2", "values": [{"measurement": "IC50", "setting": "[12]", "result": "> 100 µM (active)"}]}
{"smiles": "O=C(CCNc1ccc(Cc2ccncc2)cc1)c1ccc([N+](=O)[O-])cc1", "values": [{"measurement": "EC50", "setting": "[7]", "result": "> 67.5 µM (inactive)"}, {"measurement": "IC50", "setting": "[8]", "result": "> 67.5 µM (inactive)"}, {"measurement": "IC50", "setting": "[13]", "result": "15.8 µM (active)"}]}
{"smiles": "O=C1OCCN1C(=O)[C@H]1[C@H](c2ccc([N+](=O)[O-])cc2)C(c2ccc(F)cc2)=NN1c1ccc(Br)cc1", "values": [{"measurement": "IC50", "setting": "[14]", "result": "> 79 µM (inactive)"}, {"measurement": "IC50", "setting": "[15]", "result": "> 69.5 µM (inactive)"}]}
{"smiles": "Cc1nn(-c2ccccc2)c(Cl)c1/C=N/O", "values": [{"measurement": "IC50", "setting": "[12]", "result": "> 100 µM (active)"}]}
{"smiles": "CCOC(=O)c1ccc(NC(=O)CCNC(=O)c2ccc([N+](=O)[O-])cc2)cc1", "values": [{"measurement": "IC50", "setting": "[12]", "result": "> 100 µM (active)"}]}
{"smiles": "COc1ccc(NC(=O)Nc2ccc3c(c2)C(=O)N([C@H](C)CO)C[C@@H](C)[C@H](CN(C)Cc2ccc(C(F)(F)F)cc2)OCCCC[C@H](C)O3)cc1", "values": [{"measurement": "AC50", "setting": "[16]", "result": "33.1 µM (active)"}, {"measurement": "AC50", "setting": "[17]", "result": "5.71 µM (active)"}, {"measurement": "AC50", "setting": "[18]", "result": "70 µM (active)"}, {"measurement": "AC50", "setting": "[19]", "result": "20.5 µM (active)"}, {"measurement": "AC50", "setting": "[20]", "result": "23 µM (active)"}]}
